# Data: patent US7846941B2, “Compounds modulating c-kit and c-fms activity and uses therefor” (Plexxikon, Inc., priority 2005, dated 2010)
# Target: c-kit (Homo sapiens, UniProt P10721)
# Assay: c-kit assays of Examples 40 and 41 (AlphaScreen and 33P kinase assays, M-07e proliferation and phosphorylation)
# Details: not given
# Chain of c-kit (P10721 with tags, fused parts or gaps): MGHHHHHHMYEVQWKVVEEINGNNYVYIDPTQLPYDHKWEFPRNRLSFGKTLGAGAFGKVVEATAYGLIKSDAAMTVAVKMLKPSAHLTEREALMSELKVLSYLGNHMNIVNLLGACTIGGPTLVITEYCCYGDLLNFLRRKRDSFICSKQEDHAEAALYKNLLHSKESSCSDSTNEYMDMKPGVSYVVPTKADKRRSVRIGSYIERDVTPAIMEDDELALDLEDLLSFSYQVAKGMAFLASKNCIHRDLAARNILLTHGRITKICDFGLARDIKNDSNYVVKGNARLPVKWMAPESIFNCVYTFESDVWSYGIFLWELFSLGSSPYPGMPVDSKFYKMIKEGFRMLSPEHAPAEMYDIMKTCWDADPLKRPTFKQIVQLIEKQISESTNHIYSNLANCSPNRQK
row,IC50,SMILES
1,< 1000 nM,"Clc1ccc(COc2ccc(Cc3c[nH]c4ncccc34)cn2)cc1 [Compound P-0056, 3-[6-(4-Chloro-benzyloxy)-pyridin-3-ylmethyl]-1H-pyrrolo[2,3-b]pyridine]"
2,< 1000 nM,"O=S(=O)(Nc1ccc(Cc2c[nH]c3ncccc23)cn1)c1ccc(C(F)(F)F)cc1 [Compound P-0071, N-[5-(1H-Pyrrolo[2,3-b]pyridin-3-ylmethyl)-pyridin-2-yl]-4-trifluoromethyl-benzenesulfonamide]"
3,< 1000 nM,"Clc1ccc(NCc2ccc(Cc3c[nH]c4ncccc34)cn2)cc1 [Compound P-0078, (4-Chloro-phenyl)-[5-(1H-pyrrolo[2,3-b]pyridin-3-ylmethyl)-pyridin-2-ylmethyl]-amine]"
4,< 1000 nM,"Clc1ccc(CNc2ccc(Cc3c[nH]c4nccc(Cl)c34)cn2)cc1 [Compound P-0009, [5-(4-chloro-1H-pyrrolo[2,3-b]pyridin-3-ylmethyl)-pyridin-2-yl]-(4-chloro-benzyl)-amine]"
5,< 1000 nM,"C[C@H](Nc1ccc(Cc2c[nH]c3ncccc23)cn1)c1ccc(Cl)cc1 [Compound P-0075, [(S)-1-(4-Chloro-phenyl)-ethyl]-[5-(1H-pyrrolo[2,3-b]pyridin-3-ylmethyl)-pyridin-2-yl]-amine]"
6,< 1000 nM,"CCN(CC)CCCOc1cnc2[nH]cc(Cc3ccc(NCc4ccc(Cl)cc4)nc3)c2c1 [Compound P-0069, (4-Chloro-benzyl)-{5-[5-(3-diethylamino-propoxy)-1H-pyrrolo[2,3-b]pyridin-3-ylmethyl]-pyridin-2-yl}-amine]"
7,< 1000 nM,"COc1cnc2[nH]cc(Cc3ccc(NCc4ccc(Cl)cc4)nc3)c2c1 [Compound P-0058, (4-Chloro-benzyl)-[5-(5-methoxy-1H-pyrrolo[2,3-b]pyridin-3-ylmethyl)-pyridin-2-yl]-amine]"
8,< 1000 nM,"COc1cnc2[nH]cc(Cc3ccc(NCc4ccc(C(F)(F)F)cc4)nc3)c2c1 [Compound P-0053, [5-(5-Methoxy-1H-pyrrolo[2,3-b]pyridin-3-ylmethyl)-pyridin-2-yl]-(4-trifluoromethyl-benzyl)-amine]"
9,< 1000 nM,"O=C(Nc1ccc(Cc2c[nH]c3ncccc23)cn1)c1ccc(F)cc1 [Compound P-0073, 4-Fluoro-N-[5-(1H-pyrrolo[2,3-b]pyridin-3-ylmethyl)-pyridin-2-yl]-benzamide]"
10,< 1000 nM,"c1cnc2[nH]cc(Cc3ccc(NCC4CCCCC4)nc3)c2c1 [Compound P-0033, Cyclohexylmethyl-[5-(1H-pyrrolo[2,3-b]pyridin-3-ylmethyl)-pyridin-2-yl]-amine]"
11,< 1000 nM,"Clc1cccc(COc2ccc(Cc3c[nH]c4ncccc34)cn2)c1 [Compound P-0055, 3-[6-(3-Chloro-benzyloxy)-pyridin-3-ylmethyl]-1H-pyrrolo[2,3-b]pyridine]"
12,< 1000 nM,"CC(C)CNc1ccc(Cc2c[nH]c3ncccc23)cn1 [Compound P-0028, Isobutyl-[5-(1H-pyrrolo[2,3-b]pyridin-3-ylmethyl)-pyridin-2-yl]-amine]"
13,< 1000 nM,"CCN(CC)CCOc1cnc2[nH]cc(Cc3ccc(NCc4ccc(C(F)(F)F)cc4)nc3)c2c1 [Compound P-0060, {5-[5-(2-Diethylamino-ethoxy)-1H-pyrrolo[2,3-b]pyridin-3-ylmethyl]-pyridin-2-yl}-(4-trifluoromethyl-benzyl)-amine]"
14,< 1000 nM,"O=C(c1ccc(Nc2cccc(OCc3ccccc3)c2)nc1)c1c[nH]c2ncccc12 [Compound P-0026, [6-(3-Benzyloxy-phenylamino)-pyridin-3-yl]-(1H-pyrrolo[2,3-b]pyridin-3-yl)-methanone]"
15,< 1000 nM,"Clc1ccc(CNc2ccc(Cc3c[nH]c4ncc(OCCN5CCOCC5)cc34)cn2)cc1 [Compound P-0063, (4-Chloro-benzyl)-{5-[5-(2-morpholin-4-yl-ethoxy)-1H-pyrrolo[2,3-b]pyridin-3-ylmethyl]-pyridin-2-yl}-amine]"
16,< 1000 nM,"CCN(CC)CCCOc1cnc2[nH]cc(Cc3ccc(NCc4ccc(C(F)(F)F)cc4)nc3)c2c1 [Compound P-0066, {5-[5-(3-Diethylamino-propoxy)-1H-pyrrolo[2,3-b]pyridin-3-ylmethyl]-pyridin-2-yl}-(4-trifluoromethyl-benzyl)-amine]"
17,< 1000 nM,"FC(F)(F)c1ccc(CNc2ccc(Cc3c[nH]c4ncc(OCCN5CCOCC5)cc34)cn2)cc1 [Compound P-0065, {5-[5-(2-Morpholin-4-yl-ethoxy)-1H-pyrrolo[2,3-b]pyridin-3-ylmethyl]-pyridin-2-yl}-(4-trifluoromethyl-benzyl)-amine]"

row,IC50,SMILES
1,< 1000 nM,"Oc1cnc2[nH]cc(Cc3ccc(NCc4ccc(C(F)(F)F)cc4)nc3)c2c1 [Compound P-0061, 3-[6-(4-Trifluoromethyl-benzylamino)-pyridin-3-ylmethyl]-1H-pyrrolo[2,3-b]pyridin-5-ol]"
2,< 1000 nM,"Oc1cnc2[nH]cc(Cc3ccc(NCc4ccc(Cl)cc4)nc3)c2c1 [Compound P-0062, 3-[6-(4-Chloro-benzylamino)-pyridin-3-ylmethyl]-1H-pyrrolo[2,3-b]pyridin-5-ol]"
3,< 1000 nM,"O=C(c1ccc(NCC2CCCCC2)nc1)c1c[nH]c2ncccc12 [Compound P-0031, [6-(Cyclohexylmethyl-amino)-pyridin-3-yl]-(1H-pyrrolo[2,3-b]pyridin-3-yl)-methanone]"
4,< 1000 nM,"CC(C)Nc1ccc(C(=O)c2c[nH]c3ncccc23)cn1 [Compound P-0024, (6-Isopropylamino-pyridin-3-yl)-(1H-pyrrolo[2,3-b]pyridin-3-yl)-methanone]"
5,< 1000 nM,"O=C(Nc1ccc(Cc2c[nH]c3ncccc23)cn1)c1ccc(C(F)(F)F)cc1 [Compound P-0072, N-[5-(1H-Pyrrolo[2,3-b]pyridin-3-ylmethyl)-pyridin-2-yl]-4-trifluoromethyl-benzamide]"
6,< 1000 nM,"O=C(c1ccc(NCc2cccc(F)c2)nc1)c1c[nH]c2ncccc12 [Compound P-0016, [6-(3-Fluoro-benzylamino)-pyridin-3-yl]-(1H-pyrrolo[2,3-b]pyridin-3-yl)-methanone]"
7,< 1000 nM,"COc1nc(NCc2ccc(C(F)(F)F)cc2)ccc1Cc1c[nH]c2ncccc12 [Compound P-0012, [6-Methoxy-5-(1H-pyrrolo[2,3-b]pyridin-3-ylmethyl)-pyridin-2-yl]-(4-trifluoromethyl-benzyl)-amine]"
8,< 1000 nM,"Clc1ccc(CNc2ccc(Cc3c[nH]c4ncc(Cl)cc34)cn2)cc1 [Compound P-0059, (4-Chloro-benzyl)-[5-(5-chloro-1H-pyrrolo[2,3-b]pyridin-3-ylmethyl)-pyridin-2-yl]-amine]"
9,< 1000 nM,"FC(F)(F)c1ccc(CNc2ccc(Cc3c[nH]c4ncc(Cl)cc34)cn2)cc1 [Compound P-0054, [5-(5-Chloro-1H-pyrrolo[2,3-b]pyridin-3-ylmethyl)-pyridin-2-yl]-(4-trifluoromethyl-benzyl)-amine]"
10,< 1000 nM,"CC(C)CNc1ccc(C(=O)c2c[nH]c3ncccc23)cn1 [Compound P-0025, (6-Isobutylamino-pyridin-3-yl)-(1H-pyrrolo[2,3-b]pyridin-3-yl)-methanone]"
11,< 1000 nM,"O=C(Nc1ccc(Cc2c[nH]c3ncccc23)cn1)c1ccc(Cl)cc1 [Compound P-0074, 4-Chloro-N-[5-(1H-pyrrolo[2,3-b]pyridin-3-ylmethyl)-pyridin-2-yl]-benzamide]"
12,< 1000 nM,"FC(F)(F)c1ccc(CNc2ccc(Cc3c[nH]c4ncccc34)cn2)cc1 [Compound P-0003, [5-(1H-Pyrrolo[2,3-b]pyridin-3-ylmethyl)-pyridin-2-yl]-(4-trifluoromethyl-benzyl)-amine]"
13,< 1000 nM,"FC(F)(F)c1ccc(CNc2ccc(Cc3c[nH]c4ncc(OCCN5CCCC5)cc34)cn2)cc1 [Compound P-0064, {5-[5-(2-Pyrrolidin-1-yl-ethoxy)-1H-pyrrolo[2,3-b]pyridin-3-ylmethyl]-pyridin-2-yl}-(4-trifluoromethyl-benzyl)-amine]"
14,< 1000 nM,"FC(F)(F)c1cccc(COc2ccc(Cc3c[nH]c4ncccc34)cn2)c1 [Compound P-0057, 3-[6-(3-Trifluoromethyl-benzyloxy)-pyridin-3-ylmethyl]-1H-pyrrolo[2,3-b]pyridine]"
15,< 1000 nM,"O=C(c1ccc(NCC2CC2)nc1)c1c[nH]c2ncccc12 [Compound P-0030, [6-(Cyclopropylmethyl-amino)-pyridin-3-yl]-(1H-pyrrolo[2,3-b]pyridin-3-yl)-methanone]"
16,< 1000 nM,"Fc1nc(NCc2ccc(Cl)cc2)ccc1Cc1c[nH]c2ncccc12 [Compound P-0082, (4-Chloro-benzyl)-[6-fluoro-5-(1H-pyrrolo[2,3-b]pyridin-3-ylmethyl)-pyridin-2-yl]-amine]"
17,< 1000 nM,"c1cnc2[nH]cc(Cc3ccc(NCC4CC4)nc3)c2c1 [Compound P-0032, Cyclopropylmethyl-[5-(1H-pyrrolo[2,3-b]pyridin-3-ylmethyl)-pyridin-2-yl]-amine]"

row,SMILES,IC50
1,"CC(C)(C)Oc1ccc(Cc2c[nH]c3ncccc23)cn1 [Compound P-0020, 3-(6-tert-Butoxy-pyridin-3-ylmethyl)-1H-pyrrolo[2,3-b]pyridine]",< 1000 nM

# Test system: cells with activating c-kit mutations
# Assay: not given
# Details: mutations in the catalytic region of c-kit; cited from earlier work
row,SMILES,inhibition of cells with c-kit mutations
1,Cc1ccc(NC(=O)c2ccc(CN3CCN(C)CC3)cc2)cc1Nc1nccc(-c2cccnc2)n1 [STI571],did not inhibit
